System: Streptomyces scabies
Experiment: agar well diffusion assay
Type: cell-based
Method: In addition, the antimicrobial activity of the crude extracts from Bacillus pumilus and Bacillus subtilis was assessed via agar well diffusion assay. A spore suspension of Streptomyces scabies was overlaid on PDA and the plates were allowed to air dry. A 50 μL drop of crude extracts from Bacillus pumilus (top), Bacillus pumilus (right), and Bacillus subtilis (left) were poured into agar well and a control solution was pour on the bottom of the agar well.
The concentrated material (crude extract) in the vessel was suspended in 10% acetonitrile (AcN/H2O, v/v) and frozen at −20° C. until further analysis. The crude extract was centrifuged (Sorvall Biofuge Pico, Mandel Scientific, ON, Canada) at 13,000 rpm for 30 min to remove insoluble particles. The supernatant was filter sterilized (PVDF, […], Fisher Scientific, Montreal, Canada) and tested for biological activity against Streptomyces scabies. The filtered extract was then loaded onto a C18 column (Restek™, Fisher Scientific, Montreal, Canada) and eluted with 20 mL of 10%, 20%, 40%, 60%, 80% and 100% acetonitrile and the fractions were collected. The eluted fractions under various concentrations of acetonitrile were lyophilized (SNL216V, Savant Instruments Inc., NY, USA), suspended in sterilized distilled water and tested for biological activity against Streptomyces scabies. The fraction showing an inhibition zone against Streptomyces scabies was selected for further fractionation by HPLC. The active fraction was stored in sterilized vials at 4° C. prior to HPLC analysis.
The antimicrobial activities of Micrococcin P1 at various concentrations were assessed via agar well diffusion assay. A spore suspension of Streptomyces scabies was overlaid on PDA and the plates were allowed to air dry. A 50 μL drop of Micrococcin P1 diluted in various concentrations were applied into agar well.

Substance: Micrococcin P1
- minimal amount giving growth inhibition zones (per well, in 50 μL, PDA, 3 days 30° C.): ≥ 31.25 ng
- antimicrobial activity of the standard (tested for biological activity): showed antimicrobial activity against Streptomyces scabies
- dose dependence of antibacterial activities (up to 5 mg/L (4.37 μM), highest concentration tested): increased proportional to the Micrococcin P1 concentrations

Reference: patent publication US12070037B2, “Methods and compositions for bioprotection of potatoes from Streptomyces scabies” (THE ROYAL INSTITUTION FOR THE ADVANCEMENT OF …, priority 2018, dated 2024)
